Results as given in patent publication US20120164230A1, “Soluble Nanoparticles as Delivery Systems for Prodrugs” (priority 2007, published 2012).
pIC50: −log10 of the molar value.

What was measured:
NTera-2 cells [1] = experiment: MTT cell proliferation / cytotoxicity assay; assay type: cell-based, human
Experimental: In order to evaluate the feasibility of this method for delivering a toxic dose of platinum, cytotoxicity assays of SWNT-Pt(IV) were conducted using the testicular carcinoma cell line NTera-2. Example 3 below describes these experiments, in which the MTT assay was used to determine cell viability following treatment for four days with either the free platinum(IV) complex 2 or with the SWNT-tethered analog (FIG. 2). Compared to cis-[Pt(NH3)2Cl2] (IC50=0.05 μM) the cytotoxicity of the asymmetrically substituted platinum(IV) compound 2 is insignificant (IC50>>0.5 mM). […] Without wishing to be bound to any particular theory, it is thought that this increase is due to the two-fold increase in uptake of Pt relative to free cisplatin.
Cell Culture. Cells from the human testicular cancer line NTera-2 were incubated at 37° C. in 5% CO2 and grown in DMEM (Dulbecco's Modified Eagle's Medium) medium supplemented with 10% fetal bovine serum and 1% penicillin/streptomycin. Cells were passaged every 3 to 4 days and reseeded from frozen stocks after reaching passage number 20.
Cell Proliferation Assay. Ntera-2cells were seeded into 96 well plates at a confluence of 1000 cells per well and incubated for 24 h. The cells were then treated with either cisplatin, compound 1, compound 2, or SWNT-Pt(IV) and incubated for 96 h. The cells were then treated with 20 μL of 3-(4,5-dimethylthiazol-2-yl)-2,5-diphenyltetrazolium bromide (MTT) (5 mg/mL in PBS) and incubated for 5 h. The medium was removed, the cells were lysed with 100 μL of DMSO, and the absorbance of the purple formazan was recorded at 550 nm. The results are presented in FIG. 2, FIG. 7, FIG. 8, and FIG. 9. […] (cisplatin).

NTera-2 cells [2] = experiment: Platinum concentration of cell extracts (cytosolic and nuclear fractions) by AAS; assay type: cell-based, human; settings: 1 μM platinum, 3 h incubation
Experimental: In order to investigate the mechanism by which the SWNTs transport Pt(IV) compounds into cells and release them once inside we devised a strategy to track their intracellular location.
Cell Extract Preparation and Analysis. NTera-2 cells were grown to >90% confluence in 175 cm^2 flasks. These cells were treated separately with 1 μM concentrations of cisplatin, c,c,t-[Pt(NH3)2Cl2(OEt)(O2CCH2CH2CO2H)], and SWNT-Pt(IV) and subsequently incubated for three h at 37° C. The cells were washed thrice with PBS and released by trypsinization into PBS. The cell solutions were centrifuged at 800×g for 10 min and the cell pellets resuspended in 100 μL of ice-cold lysis buffer (1.0 mM DTT (dithiothreitol), 1.0 mM PMSF (phenylmethanesulphonylfluoride), 10 mM KCl, 10 mM MgCl2, pH 7.5) for 15 min. The cells were centrifuged again and the pellets resuspended in 40 μL of ice-cold lysis buffer. The cell membranes were lysed by 10 strokes of a 28 ga. syringe. The resulting suspension was centrifuged at 11,000×g for 20 min and the supernatant was collected as the cytosolic fraction of the cells. […] The lysate was shaken at 1000 rpm for 45 min at […] and then centrifuged at 20,000×g for 10 min at 4° C. The supernatant was collected as the nuclear fraction. The platinum concentration of all fractions was determined by AAS. The protein concentration for each fraction was determined by the bicinchoninic acid (BCA) assay and the total platinum concentration was expressed as nanograms of platinum per microgram of protein (Table 1).

[3] = Cyclic voltammetry, reduction potential; assay type: physicochemical; settings: vs Ag/AgCl; for reduction potential (reduction peak) extrapolated to 0.0 mV s^-1 scan rate: pH 6.0, 0.1 M KCl phosphate buffer; for reduction potential extrapolated to 0.0 mV s^-1 scan rate: pH 7.4, 0.1 M KCl phosphate buffer
Experimental: Each platinum complex was dissolved to a final concentration of 2.0 mM in 0.1 M aqueous KCl buffered with phosphate to either pH 6.0 or 7.4. Cyclic voltammetric (CV) measurements were performed with a model 263 EG&G Princeton Applied Research electrochemical analyzer at varying scan rates of 20-100 mV s^−1. The solvent was degassed by several freeze-pump-thaw cycles and measurements were taken under an atmosphere of argon. The working electrode was made of glassy carbon, the reference electrode was Ag/AgCl, and the counter electrode was a platinum wire. Reported potentials are extrapolated to 0.0 mV s^−1 scan rates to account for the irreversible behavior of the reduction processes.^7

| Platinum concentration of cell extracts, Cytosolic (NTera-2 cells [2]) | Platinum concentration of cell extracts, Nuclear (NTera-2 cells [2]) | reduction potential (reduction peak) extrapolated to 0.0 mV s^-1 scan rate [3] | reduction potential extrapolated to 0.0 mV s^-1 scan rate [3] | Compound | pIC50 (NTera-2 cells [1]) | cytotoxicity (in words) (NTera-2 cells [1]) |
| --- | --- | --- | --- | --- | --- | --- |
| 3 Pt(ng)/protein(mg) | 6 Pt(ng)/protein(mg) | −0.623 V | −0.724 V | CC[O][Pt]([NH2])([NH2])([Cl])([Cl])[O]C(=O)CCC(=O)O [Compound 2, c,c,t-[Pt(NH3)2Cl2(OEt)(O2CCH2CH2CO2H)]] | < 6.30 | nearly nontoxic |
| 11 Pt(ng)/protein(mg) | 14 Pt(ng)/protein(mg) |  |  | cis-[Pt(NH3)2Cl2] [reference compound] | 7.30 | significantly more toxic |
|  |  | −0.499 V | −0.604 V | CC[O][Pt]([NH2])([NH2])([OH])([Cl])[Cl] [Compound 1, c,c,t-[Pt(NH3)2Cl2(OH)(OEt)]] |  | only toxic to cells in micromolar concentrations |
